According to paper PMC6199744, “Development of Chemical Proteomics for the Folateome and Analysis of the Kinetoplastid Folateome” (ACS Infectious Diseases, 2018):
Where two headings read alike, the source gives them in different places.

System: T. brucei lysate proteins
Assay type: binding, Trypanosoma brucei
Settings: vehicle control = 1

Work on `NCCOCCOCC(=O)Nc1nc2ncc(CNc3ccc(C(=O)NC(CCC(=O)O)C(=O)O)cc3)nc2c(=O)[nH]1` (stereo not shown) [compound 6] yielded a fold change (protein TB427.06.2550 RNA-BINDING PROTEIN, PUTATIVE) of 0.94, a fold change (protein TB427.06.3500 ENDOSOMAL T[…] RME-8, PUTATIVE) of 0.83 and a fold change (protein TB427.06.3630 SPHINGOSINE 1-PHOSPHATE LYASE, PUTATIVE) of 0.95. The fold change (protein TB427.06.3650 ADP-RI[…], PUTATIVE) was 0.98, the fold change (protein TB427.06.3670 PAR[…] COMPONENT, PUTATIVE) was 0.88 and the fold change (protein TB427.06.4890 S-ADENOSYL[…], PUTATIVE) was 1.19. The fold change (protein TB427.06.700 ALANYL-TRNA SYNTHETASE, PUTATIVE) was 0.97, the “fold change vs vehicle control” value (protein TB427.07.1300 PROTEIN DISULFIDE ISOMERASE, PUTATIVE) was 1.37 and the fold change (protein TB427.07.2340 40S RIBOSOMAL PROTEIN S15, PUTATIVE) was 0.89. The fold change (protein TB427.07.2770 HY[…], CONSERVED) was 0.86, the fold change (protein TB427.07.3530 HY[…], CONSERVED) was 0.98 and the fold change (protein TB427.07.3980 IMMU[…], PUTATIVE) was 0.79. The “fold change vs vehicle control” value (protein TB427.07.4170 FATTY ACID ELONGASE, PUTATIVE) was 0.97, the fold change (protein TB427.07.4180 FATTY ACID ELONGASE, PUTATIVE) was 0.95 and the fold change (protein TB427.07.4970 GLUTAMINE SYNTHETASE, PUTATIVE) was 0.85. For the same compound, the fold change (protein TB427.07.7070 HY[…], CONSERVED) was 0.92, the “fold change vs vehicle control” value (protein TB427.07.7500 THYMINE-7-HYDROXYLASE, PUTATIVE) was 0.35 and the fold change (protein TB427.08.2060 HY[…], CONSERVED) was 0.87. For the same compound, the fold change (protein TB427.08.2080 HY[…], CONSERVED) was 1.19, the fold change (protein TB427.08.3490 HY[…], CONSERVED) was 0.98 and the fold change (protein TB427.08.3530 GLYCEROL-3-PHOSPHATE DEH[…]+], GLYCOSOMAL) was 1. The “fold change vs vehicle control” value (protein TB427.08.3660 PROTEIN TRANSPORT PROTEIN SEC23) was 0.99, the “fold change vs vehicle control” value (protein TB427.08.3750 NUCLEOLAR PROTEIN, PUTATIVE) was 0.96 and the fold change (protein TB427.08.3870 HY[…], CONSERVED) was 0.99. It also gave a fold change (protein TB427.08.4210 HY[…], CONSERVED) of 1.19, a fold change (protein TB427.08.650 CATION-TR[…], PUTATIVE) of 0.94 and a fold change (protein TB427.10.10020 HY[…], CONSERVED) of 0.97. The fold change (protein TB427.10.10350 PROTEIN KINASE, PUTATIVE) was 0.86, the fold change (protein TB427.10.10360 MICROTUBULE-[…], PUTATIVE) was 0.85 and the “fold change vs vehicle control” value (protein TB427.10.10610 PROTEIN TYROSINE PHOSPHATASE, PUTATIVE) was 1.7. The “fold change vs vehicle control” value (protein TB427.10.1100 60S RIBOSOMAL PROTEIN L9, PUTATIVE) was 1.14, the “fold change vs vehicle control” value (protein TB427.10.12510 P-TYPE H+-ATPASE, PUTATIVE) was 1.28 and the fold change (protein TB427.10.12710 HEAT SHOCK PROTEIN, PUTATIVE) was 1.53. The “fold change vs vehicle control” value (protein TB427.10.14470 INTR[…] PROTEIN IFT140, PUTATIVE) was 1.46, the fold change (protein TB427.10.1450 HY[…], CONSERVED) was 0.97 and the “fold change vs vehicle control” value (protein TB427.10.14550 ATP-DEPENDENT DEAD/H RNA HELICASE, PUTATIVE) was 1.1. The “fold change vs vehicle control” value (protein TB427.10.14930 HY[…], CONSERVED) was 0.95, the “fold change vs vehicle control” value (protein TB427.10.14950 RNA BINDING PROTEIN, PUTATIVE) was 0.98 and the fold change (protein TB427.10.14990 INTR[…] PROTEIN IFT80/CHE2, PUTATIVE) was 1.1. For the same compound, the fold change (protein TB427.10.15720 […]-ATP-ASE SUBUNIT 9) was 0.84, the fold change (protein TB427.10.2020 HEXOKINASE) was 1.29 and the fold change (protein TB427.10.2290 CHAPERONE PROTEIN DNAJ, PUTATIVE) was 0.86. For the same compound, the fold change (protein TB427.10.2440 METACASPASE MCA4) was 0.89, the “fold change vs vehicle control” value (protein TB427.10.3470 HY[…], CONSERVED) was 1.1 and the “fold change vs vehicle control” value (protein TB427.10.5810 HY[…], CONSERVED) was 1.81. It also gave a fold change (protein TB427.10.6150 […]/BEIGE PROTEIN, PUTATIVE) of 0.67, a fold change (protein TB427.10.6310 MAJOR VAULT PROTEIN, PUTATIVE) of 0.93 and a fold change (protein TB427.10.730 ATP SYNTHASE, PUTATIVE) of 0.83. For the same compound, the “fold change vs vehicle control” value (protein TB427.10.7620 MIT[…]-DEPENDENT ZINC METALLOPEPTIDASE, PUTATIVE) was 0.98, the “fold change vs vehicle control” value (protein TB427.10.8230 PROTEIN DISULFIDE ISOMERASE) was 1.84 and the fold change (protein TB427.10.8910 HY[…], CONSERVED) was 0.91. For the same compound, the “fold change vs vehicle control” value (protein TB927.10.13290 ETHANOLAMINE PHOSPHOTRANSFERASE (EPT)) was 1.14, the “fold change vs vehicle control” value (protein TB927.10.13780 GLYCOGEN SYNTHASE KINASE 3) was 0.99 and the “fold change vs vehicle control” value (protein TB927.10.14980 INTR[…] PROTEIN IFT52, PUTATIVE) was 1.23. For the same compound, the “fold change vs vehicle control” value (protein TB927.10.2640 INTR[…] PROTEIN IFT81, PUTATIVE) was 0.98, the “fold change vs vehicle control” value (protein TB927.10.2890 ENOLASE) was 1.58 and the fold change (protein TB927.10.2980 […]-ATPASE SUBUNIT 11) was 0.89. For the same compound, the fold change (protein TB927.10.3990 DHH1) was 1.1, the fold change (protein TB927.10.4180 TFIIF-[…] PHOSPHATASE, PUTATIVE) was 1 and the “fold change vs vehicle control” value (protein TB927.10.4570 […] 2) was 1.74. For the same compound, the fold change (protein TB927.10.5370 40S RIBOSOMAL PROTEIN S10, PUTATIVE) was 0.89, the fold change (protein TB927.10.5500 HY[…], CONSERVED) was 0.92 and the “fold change vs vehicle control” value (protein TB927.10.560 40S RIBOSOMAL PROTEINS S11, PUTATIVE) was 1.25. For the same compound, the fold change (protein TB927.10.6050 CLATHRIN HEAVY CHAIN) was 0.85, the fold change (protein TB927.10.7090 A[…]) was 1.37 and the “fold change vs vehicle control” value (protein TB927.10.8940 HY[…], CONSERVED) was 0.88. For the same compound, the fold change (protein TB927.2.2770 HY[…] TB927 2 2770) was 1.1, the fold change (protein TB927.2.3800 MRNA […], PUTATIVE) was 0.69 and the fold change (protein TB927.3.1240 PROTEIN PHOSPHATASE 2A, PUTATIVE) was 0.98. For the same compound, the “fold change vs vehicle control” value (protein TB927.3.2960 INOSINE-ADENOSINE-GUANOSINE-[…]) was 1.36, the fold change (protein TB927.3.3270 ATP-DEPENDENT PHOSPHOFRUCTOKINASE) was 0.93 and the “fold change vs vehicle control” value (protein TB927.3.3450 ADP-RI[…]-LIKE PROTEIN 3A, PUTATIVE) was 2.16. For the same compound, the “fold change vs vehicle control” value (protein TB927.3.3490 HIGH MOBILITY GROUP PROTEIN, PUTATIVE) was 1.55, the fold change (protein TB927.3.3780 TRYPAREDOXIN) was 0.94 and the “fold change vs vehicle control” value (protein TB927.3.5120 HY[…], CONSERVED (Ankyrin repeats (3 copies), putative)) was 1.38. The “fold change vs vehicle control” value (protein TB927.3.740 HY[…], CONSERVED) was 0.97, the “fold change vs vehicle control” value (protein TB927.4.2740 HY[…], CONSERVED (p25-alpha, putative)) was 1.55 and the fold change (protein TB927.4.3590 T[…] 1-BETA, PUTATIVE) was 1.46. The “fold change vs vehicle control” value (protein TB927.4.3820 HY[…], CONSERVED) was 0.99, the fold change (protein TB927.4.5310 SERINE/THREONINE-PROTEIN KINASE A, PUTATIVE) was 0.95 and the fold change (protein TB927.5.1630 HY[…], CONSERVED) was 0.86. The fold change (protein TB927.5.3220 SIGNAL PEPTIDASE TYPE I, PUTATIVE) was 0.87, the “fold change vs vehicle control” value (protein TB927.5.4440 DYNEIN LIGHT CHAIN, PUTATIVE) was 0.98 and the fold change (protein TB927.6.2200 HY[…], CONSERVED) was 1. For the same compound, the “fold change vs vehicle control” value (protein TB927.7.1750 60S RIBOSOMAL PROTEIN L7, PUTATIVE) was 1.31, the fold change (protein TB927.7.2140 HY[…]) was 0.83 and the “fold change vs vehicle control” value (protein TB927.7.4470 HY[…], CONSERVED) was 1.18. The “fold change vs vehicle control” value (protein TB927.7.7430 ATP SYNTHASE ALPHA CHAIN, MIT[…]) was 1.18, the fold change (protein TB927.8.1510 ATP-DEPENDENT DEAD/H RNA HELICASE, PUTATIVE) was 0.96 and the fold change (protein TB927.8.1990 PEROXIDOXIN) was 0.97. The fold change (protein TB927.8.4770 SMALL GTP-BINDING PROTEIN RAB18) was 0.96.
